Assay results taken from ChEMBL document CHEMBL1133208, “Synthesis and biological properties of new 1beta-methylcarbapenems having tetrazolothioether moiety” (Bioorg Med Chem Lett, 2000).
≈ marks a conversion by molar mass, not a printed value.

How the values were obtained:
Enterobacter cloacae = assay: In vitro antibacterial activity against Enterobacter cloacae 1321E by agar dilution method using Mueller-Hinton; assay type: functional
Escherichia coli [1] = assay: In vitro antibacterial activity against Escherichia coli 078 by agar dilution method using Mueller-Hinton; assay type: functional
Escherichia coli [2] = assay: In vitro antibacterial activity against Escherichia coli 1507E by agar dilution method using Mueller-Hinton; assay type: functional
Klebsiella aerogenes = assay: In vitro antibacterial activity against Klebsiella aerogenes 1522E by agar dilution method using Mueller-Hinton; assay type: functional
Pseudomonas aeruginosa [3] = assay: In vitro antibacterial activity against Pseudomonas aeruginosa 1771M by agar dilution method using Mueller-Hinton; assay type: functional
Pseudomonas aeruginosa [4] = assay: In vitro antibacterial activity against Pseudomonas aeruginosa 9027 by agar dilution method using Mueller-Hinton; assay type: functional
Pseudomonas aeruginosa [5] = assay: In vitro antibacterial activity against Pseudomonas aeruginosa 1592E by agar dilution method using Mueller-Hinton; assay type: functional
Salmonella typhimurium = assay: In vitro antibacterial activity against Salmonella Typhimurium by agar dilution method using Mueller-Hinton; assay type: functional, Salmonella enterica subsp. enterica serovar Typhimurium; conditions: Salmonella enterica
Staphylococcus aureus [6] = assay: In vitro antibacterial activity against Staphylococcus aureus SG 285 by agar dilution method using Mueller-Hinton; assay type: functional
Staphylococcus aureus [7] = assay: In vitro antibacterial activity against Staphylococcus aureus SG 503 by agar dilution method using Mueller-Hinton; assay type: functional
Staphylococcus aureus [8] = assay: In vitro antibacterial activity against Staphylococcus aureus SG 511 by agar dilution method using Mueller-Hinton; assay type: functional
Streptococcus pyogenes = assay: In vitro antibacterial activity against Streptococcus pyogenes 308A by agar dilution method using Mueller-Hinton; assay type: functional
[9] = The area under concentration-time curve(AUC) was determined at 20 mg/kg of compound dose, administered intravenously in rat; assay type: ADME, organism-based; set-up: dose 20 mg/kg, route intravenous; conditions: in vivo, iv
[10] = Pharmacokinetic studies were carried out to determine the clearance after administration at 20 mg/kg intravenously in rat; assay type: ADME, organism-based; set-up: dose 20 mg/kg, route intravenous; conditions: in vivo, iv

| SMILES | MIC (Enterobacter cloacae) | MIC (Escherichia coli [1]) | MIC (Escherichia coli [2]) | MIC (Klebsiella aerogenes) | MIC (Pseudomonas aeruginosa [3]) | MIC (Pseudomonas aeruginosa [4]) | MIC (Pseudomonas aeruginosa [5]) | MIC (Salmonella typhimurium) | MIC (Staphylococcus aureus [6]) | MIC (Staphylococcus aureus [7]) | MIC (Staphylococcus aureus [8]) | MIC (Streptococcus pyogenes) | AUC [9] | clearance [10] |
| --- | --- | --- | --- | --- | --- | --- | --- | --- | --- | --- | --- | --- | --- | --- |
| CNS(=O)(=O)CCn1nnnc1SC[C@@H]1C[C@H](SC2=C(C(=O)O)N3C(=O)[C@H]([C@@H](C)O)[C@H]3[C@H]2C)CN1 | 0.025 µg/mL (≈ 0.0456 µM) | 0.025 µg/mL (≈ 0.0456 µM) | 0.025 µg/mL (≈ 0.0456 µM) | 0.049 µg/mL (≈ 0.0895 µM) | 0.391 µg/mL (≈ 0.714 µM) | 3.12 µg/mL (≈ 5.71 µM) | 3.12 µg/mL (≈ 5.71 µM) | 0.049 µg/mL (≈ 0.0895 µM) | 0.098 µg/mL (≈ 0.179 µM) | 0.025 µg/mL (≈ 0.0456 µM) | 0.098 µg/mL (≈ 0.179 µM) | 0.007 µg/mL (≈ 0.0128 µM) |  |  |
| C[C@@H](O)[C@H]1C(=O)N2C(C(=O)[O-])=C(S[C@@H]3CN[C@H](CSc4nnnn4CC[N+](C)(C)C)C3)[C@H](C)[C@H]12 | 0.098 µg/mL (≈ 0.192 µM) | 0.049 µg/mL (≈ 0.0958 µM) | 0.098 µg/mL (≈ 0.192 µM) | 0.195 µg/mL (≈ 0.381 µM) | 0.195 µg/mL (≈ 0.381 µM) | 0.781 µg/mL (≈ 1.53 µM) | 0.781 µg/mL (≈ 1.53 µM) | 0.195 µg/mL (≈ 0.381 µM) | 0.195 µg/mL (≈ 0.381 µM) | 0.049 µg/mL (≈ 0.0958 µM) | 0.098 µg/mL (≈ 0.192 µM) | 0.025 µg/mL (≈ 0.0489 µM) |  |  |
| C[C@@H](O)[C@H]1C(=O)N2C(C(=O)O)=C(SCCNC=N)C[C@H]12 [IMIPENEM ANHYDROUS] | 0.195 µg/mL (≈ 0.651 µM) | 0.098 µg/mL (≈ 0.327 µM) | 0.195 µg/mL (≈ 0.651 µM) | 0.391 µg/mL (≈ 1.31 µM) | 0.195 µg/mL (≈ 0.651 µM) | 0.781 µg/mL (≈ 2.61 µM) | 1.56 µg/mL (≈ 5.22 µM) | 0.781 µg/mL (≈ 2.61 µM) | 0.025 µg/mL (≈ 0.0835 µM) | 0.013 µg/mL (≈ 0.0434 µM) | 0.025 µg/mL (≈ 0.0835 µM) | 0.007 µg/mL (≈ 0.0234 µM) | 5500 ng·h/mL | 61.5 mL/min/kg |
| C[C@@H](O)[C@H]1C(=O)N2C(C(=O)O)=C(S[C@@H]3CN[C@H](C(=O)N(C)C)C3)[C@H](C)[C@H]12 [MEROPENEM] | 0.025 µg/mL (≈ 0.0652 µM) | 0.025 µg/mL (≈ 0.0652 µM) | 0.025 µg/mL (≈ 0.0652 µM) | 0.049 µg/mL (≈ 0.128 µM) | 0.049 µg/mL (≈ 0.128 µM) | 0.195 µg/mL (≈ 0.509 µM) | 0.195 µg/mL (≈ 0.509 µM) | 0.049 µg/mL (≈ 0.128 µM) | 0.195 µg/mL (≈ 0.509 µM) | 0.098 µg/mL (≈ 0.256 µM) | 0.195 µg/mL (≈ 0.509 µM) | 0.013 µg/mL (≈ 0.0339 µM) |  |  |

Second part, led by results:

| MIC (Enterobacter cloacae) | MIC (Escherichia coli [1]) | MIC (Escherichia coli [2]) | MIC (Klebsiella aerogenes) | MIC (Pseudomonas aeruginosa [3]) | MIC (Pseudomonas aeruginosa [4]) | MIC (Pseudomonas aeruginosa [5]) | MIC (Salmonella typhimurium) | MIC (Staphylococcus aureus [6]) | MIC (Staphylococcus aureus [7]) | MIC (Staphylococcus aureus [8]) | MIC (Streptococcus pyogenes) | SMILES | AUC [9] | clearance [10] |
| --- | --- | --- | --- | --- | --- | --- | --- | --- | --- | --- | --- | --- | --- | --- |
| 0.049 µg/mL (≈ 0.0985 µM) | 0.025 µg/mL (≈ 0.0502 µM) | 0.049 µg/mL (≈ 0.0985 µM) | 0.098 µg/mL (≈ 0.197 µM) | 0.195 µg/mL (≈ 0.392 µM) | 3.12 µg/mL (≈ 6.28 µM) | 3.12 µg/mL (≈ 6.28 µM) | 0.098 µg/mL (≈ 0.197 µM) | 0.098 µg/mL (≈ 0.197 µM) | 0.025 µg/mL (≈ 0.0502 µM) | 0.049 µg/mL (≈ 0.0985 µM) | 0.013 µg/mL (≈ 0.0261 µM) | C[C@@H](O)[C@H]1C(=O)N2C(C(=O)O)=C(S[C@@H]3CN[C@H](CSc4nnnn4CCN(C)C)C3)[C@H](C)[C@H]12 |  |  |
| 0.049 µg/mL (≈ 0.0958 µM) | 0.025 µg/mL (≈ 0.0489 µM) | 0.049 µg/mL (≈ 0.0958 µM) | 0.098 µg/mL (≈ 0.192 µM) | 0.391 µg/mL (≈ 0.764 µM) | 3.12 µg/mL (≈ 6.11 µM) | 3.12 µg/mL (≈ 6.11 µM) | 0.049 µg/mL (≈ 0.0958 µM) | 0.195 µg/mL (≈ 0.381 µM) | 0.049 µg/mL (≈ 0.0958 µM) | 0.195 µg/mL (≈ 0.381 µM) | 0.013 µg/mL (≈ 0.0254 µM) | C[C@@H](O)[C@H]1C(=O)N2C(C(=O)O)=C(S[C@@H]3CN[C@H](CSc4nnnn4CC(=O)N(C)C)C3)[C@H](C)[C@H]12 |  |  |
| 0.049 µg/mL (≈ 0.0985 µM) | 0.025 µg/mL (≈ 0.0502 µM) | 0.049 µg/mL (≈ 0.0985 µM) | 0.098 µg/mL (≈ 0.197 µM) | 0.391 µg/mL (≈ 0.786 µM) | 1.56 µg/mL (≈ 3.14 µM) | 1.56 µg/mL (≈ 3.14 µM) | 0.098 µg/mL (≈ 0.197 µM) | 0.195 µg/mL (≈ 0.392 µM) | 0.098 µg/mL (≈ 0.197 µM) | 0.195 µg/mL (≈ 0.392 µM) | 0.013 µg/mL (≈ 0.0261 µM) | CNC(=O)Cn1nnnc1SC[C@@H]1C[C@H](SC2=C(C(=O)O)N3C(=O)[C@H]([C@@H](C)O)[C@H]3[C@H]2C)CN1 |  |  |
